Data reported in article PMC5462828 (Scientific Reports, 2017).
Where two headings read alike, the source gives them in different places.

Assays:
RXFP1 [1] = biological target: T1, RXFP1 (Homo sapiens, UniProt Q9HBX9); assay: 125I-H2 relaxin association and dissociation kinetic studies in HEK-RXFP1 cells; format: binding; parameters: expressed in transfected cells; host or cells: HEK293T / HEK293 cells stably expressing RXFP1 (HEK-RXFP1); settings: ML290 1 μM
T1 sequence (Q9HBX9 1-757): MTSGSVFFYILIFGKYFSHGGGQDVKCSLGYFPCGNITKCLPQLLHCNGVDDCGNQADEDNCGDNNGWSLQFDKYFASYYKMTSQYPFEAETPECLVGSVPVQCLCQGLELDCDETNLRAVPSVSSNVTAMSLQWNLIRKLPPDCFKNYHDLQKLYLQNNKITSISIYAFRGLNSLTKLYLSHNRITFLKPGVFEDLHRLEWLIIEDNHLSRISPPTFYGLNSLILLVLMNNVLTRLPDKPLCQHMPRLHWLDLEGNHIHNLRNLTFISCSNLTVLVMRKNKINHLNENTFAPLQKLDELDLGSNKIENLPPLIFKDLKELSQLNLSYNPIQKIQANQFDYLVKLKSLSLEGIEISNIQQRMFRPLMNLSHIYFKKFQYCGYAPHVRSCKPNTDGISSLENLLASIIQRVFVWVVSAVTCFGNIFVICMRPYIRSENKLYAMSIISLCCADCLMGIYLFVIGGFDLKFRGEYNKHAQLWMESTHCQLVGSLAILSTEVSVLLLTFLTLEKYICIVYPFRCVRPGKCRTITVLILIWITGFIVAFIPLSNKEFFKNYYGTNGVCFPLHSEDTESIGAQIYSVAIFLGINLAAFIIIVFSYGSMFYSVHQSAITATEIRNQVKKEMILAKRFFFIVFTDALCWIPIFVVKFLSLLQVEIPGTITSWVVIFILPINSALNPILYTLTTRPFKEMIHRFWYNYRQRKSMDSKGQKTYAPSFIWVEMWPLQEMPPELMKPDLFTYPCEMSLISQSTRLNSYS
Protocol: Association and dissociation kinetic studies were performed using ^125I-H2 relaxin. Briefly, HEK-RXFP1 cells were plated in 96-well plates and allowed to adhere overnight. After rinsing with PBS, the cells were incubated at the given time intervals with 100pM of ^125I-H2 relaxin to measure the association rate. The dissociation rate of ML290 was calculated using ligand competition. […] The reactions were terminated by the removal of medium and washing with ice-cold PBS. Cells were digested using 0.1 M NaOH and radioactivity counted on the γ-counter.

pig RXFP1 = tested on: pig RXFP1; parameters: method as in PMID 26866459; settings: cited from earlier work
[2] = parameters: method as in PMID 23764525; settings: cited from earlier work
[3] = tested on: ML290-mediated cGMP accumulation; assay: Effect of signalling pathway inhibitors on ML290-mediated cGMP accumulation in human primary vascular cells; format: cell-based; settings: for Emax: Homo sapiens, read-out: ML290-mediated cGMP accumulation (maximum response), ML290 alone
Protocol: cAMP and cGMP accumulation was determined as previously described, [16]. Briefly, HEK293 cells were plated in 96-well plates (5 × 10^4 cells/well) and human primary cells were plated into 24-well plates (1 × 10^5 cells/well) and grown overnight to achieve a confluent monolayer. Prior to stimulation, HEK cells were serum-starved in DMEM containing 0.5% FBS v/v and primary cells were serum-starved in M199 medium for 4–6 hours. […] Levels of cAMP and cGMP were detected according to the manufacturer’s instructions (Perkin-Elmer, Australia).

monkey RXFP1 = tested on: monkey RXFP1; parameters: method as in PMID 26866459; settings: cited from earlier work
RXFP1 [4] = biological target: T1, RXFP1; assay: cAMP accumulation in HEK-RXFP1 cells; format: cell-based; parameters: expressed in transfected cells; host or cells: HEK293T / HEK293 cells stably expressing RXFP1 (HEK-RXFP1); settings: read-out: cAMP accumulation efficacy (Emax)
Protocol: cAMP and cGMP accumulation was determined as previously described, [16]. Briefly, HEK293 cells were plated in 96-well plates (5 × 10^4 cells/well) and human primary cells were plated into 24-well plates (1 × 10^5 cells/well) and grown overnight to achieve a confluent monolayer. Prior to stimulation, HEK cells were serum-starved in DMEM containing 0.5% FBS v/v and primary cells were serum-starved in M199 medium for 4–6 hours. Where appropriate, cells were pre-incubated with mSIRK (5 μM, 30 min), mSIRK control peptide L9A (5 μM, 30 min), gallein (100 μM, 30 min), Wortmannin (100 nM, 30 min), NF023 (10 μM, 30 min) and NF449 (10 μM, 30 min). Levels of cAMP and cGMP were detected according to the manufacturer’s instructions (Perkin-Elmer, Australia).

THP-1 cells = tested on: THP-1 cells; parameters: method as in PMID 23764525; settings: cited from earlier work
MMP-2 = assay: Gelatin zymography of MMP-2 in human cardiac fibroblasts; format: cell-based; settings: HCFs; 72 hours; ML290 1 μM, H2 relaxin 0.1 μM
Protocol: Changes in matrix metalloproteinases-2 (MMP-2; gelatinase A) activity that were secreted from HCFs into the cell media over a 72 hour experimental period, were assessed by gelatin zymography as described previously, [45]. […] Cells were used between passages 1–4, while all experiments were performed four separate times in duplicate. The optical density (OD) of MMP-2 was measured using a GS710 Calibrated Imaging Densitomer (Bio-Rad Laboratories, Hercules, CA, USA), and the mean ± SE OD of MMP-2 in each treated group was expressed as the relative ratio of the values in the untreated control group.

mouse RXFP1 = settings: cited from earlier work

SMILES: CC(C)Oc1ccccc1C(=O)Nc1ccccc1C(=O)Nc1cccc(S(=O)(=O)C(F)(F)F)c1 [ML290, 2-Isopropoxy-N-(2-(3-(trifluoromethylsulfonyl)phenylcarbamoyl)phenyl) benzamide]
- effect on the association rate of 125I-H2 relaxin (RXFP1 [1]): no significant effect
- agonist action at pig RXFP1 (pig RXFP1): activates
- microsomal stability [2]: high microsomal stability
- ML290-mediated cGMP accumulation, ML290 alone ([3]; HUASMCs, control of NF449 and mSIRK experiments): 41.9 ± 4.8%
- ML290-mediated cGMP accumulation, ML290 alone ([3]; HUASMCs, control of gallein and Wortmannin experiments): 32.1 ± 4.2%
- ML290-mediated cGMP accumulation, ML290 alone ([3]; HUVSMCs, control of NF449 and mSIRK experiments): 31.4 ± 4.8%
- ML290-mediated cGMP accumulation, ML290 alone ([3]; HUVSMCs, control of gallein and Wortmannin experiments): 30.4 ± 3.2%
- Emax ([3]; HUVEC): 39.5 ± 4.8%
- Emax [3]: 41 ± 4.5%
- agonist action at monkey RXFP1 (monkey RXFP1): activates
- Emax (RXFP1 [4]): 113%
- VEGF expression (THP-1 cells): increased VEGF expression
- increase of MMP-2 expression versus untreated controls (MMP-2): ~40%
- action at mouse RXFP1 (mouse RXFP1): antagonist actions
- agonist action at the mouse orthologue of RXFP1 (mouse RXFP1): no agonist actions
